Measured values as given in patent publication US4015974A, “Amido phosphorothiolates” (priority 1972, dated 1977).

What was measured:
Type in all cases: in vivo
nematode = assay: Effect on nematode (Table 7); set-up: tested at 500 ppm; conditions: 500 p.p.m., 24 hours
Protocol: 0.5 ml. of a nematode-containing aqueous solution separated from food according to Baermann's method was placed in a test tube with ground stopper containing 0.5 ml. of an aqueous dilute solution of each emulsifiable concentrates of the present compounds. The concentration of the active ingredient in the mixture was adjusted to 500 p.p.m. After 24 hours, the death and alive were observed microscopically to calculate the mortality.

radish = assay: Pre-emergence application, herbicidal effect on radish (Table 1); set-up: key: 0: not damaged; 5: completely killed; conditions: 20 days after application, score 0-5
Summary of the method: (§1)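 Pre-emergence soil treatment: seeds sown in pots of about 10 cm and covered with soil, then compounds applied as wettable powder diluted in water. Plants grown in a greenhouse; damage scored 20 days after application from 0 (not damaged) to 5 (completely killed).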

[1] = test system: broad-leaved weeds, e.g., monochoria, false pimpernel and toothcup; assay: Water application, herbicidal effect on broad-leaved weeds (Table 2); set-up: key: 0: not damaged; 5: completely killed; conditions: 25 days, score 0-5
Summary of the method: (§2)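 Flooded paddy-soil pots with 3-leaf-stage transplanted rice and sown barnyard grass; wettable-powder compounds applied to soil under water. Herbicidal effect and rice phytotoxicity, also on spontaneously germinated broad-leaved weeds, scored 0–5 at 25 days after application.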

[2] = test system: barnyard grass (Echinochloa crus-galli); assay: Pre-emergence application, herbicidal effect on barnyard grass (Table 1); set-up: key: 0: not damaged; 5: completely killed; conditions: 20 days after application, score 0-5
Summary of the method: as §1

[3] = test system: large crabgrass (Digitaria sanguinalis); assay: Pre-emergence application, herbicidal effect on large crabgrass (Table 1); set-up: key: 0: not damaged; 5: completely killed; conditions: 20 days after application, score 0-5
Summary of the method: as §1

[4] = test system: redroot pigweed (Amaranthus retroflexus); assay: Pre-emergence application, herbicidal effect on redroot pigweed (Table 1); set-up: key: 0: not damaged; 5: completely killed; conditions: 20 days after application, score 0-5
Summary of the method: as §1

[5] = test system: barnyard grass (Echinochloa crus-galli); assay: Water application, herbicidal effect on barnyard grass (Table 2); set-up: key: 0: not damaged; 5: completely killed; conditions: 25 days, score 0-5
Summary of the method: as §2

[6] = test system: common purslane (Portulaca oleracea); assay: Pre-emergence application, herbicidal effect on common purslane (Table 1); set-up: key: 0: not damaged; 5: completely killed; conditions: 20 days after application, score 0-5
Summary of the method: as §1

rice = assay: Water application, phytotoxicity on rice (Table 2); set-up: key: 0: no effect; 1: very slightly affected; 2: slightly affected; 3: moderately affected; 4: considerably affected; 5: completely killed; conditions: 25 days, score 0-5
Summary of the method: as §2

[7] = test system: common lambsquarter (Chenopodium album); assay: Pre-emergence application, herbicidal effect on common lambsquarter (Table 1); set-up: key: 0: not damaged; 5: completely killed; conditions: 20 days after application, score 0-5
Summary of the method: as §1

| Structure (SMILES) | Herbicidal effect, radish (radish; 10 g./a.) | Herbicidal effect, radish (radish; 20 g./a.) | Herbicidal effect, radish (radish; 40 g./a.) | Herbicidal effects, broad-leaved weeds ([1]; 10 g/a) | Herbicidal effects, broad-leaved weeds ([1]; 20 g/a) | Herbicidal effects, broad-leaved weeds ([1]; 40 g/a) | Herbicidal effect, barnyard grass ([2]; 10 g./a.) | Herbicidal effect, barnyard grass ([2]; 20 g./a.) | Herbicidal effect, barnyard grass ([2]; 40 g./a.) | Herbicidal effect, large crabgrass ([3]; 10 g./a.) | Herbicidal effect, large crabgrass ([3]; 20 g./a.) | Herbicidal effect, large crabgrass ([3]; 40 g./a.) | Herbicidal effect, redroot pigweed ([4]; 10 g./a.) | Herbicidal effect, redroot pigweed ([4]; 20 g./a.) | Herbicidal effect, redroot pigweed ([4]; 40 g./a.) | Herbicidal effects, barnyard grass ([5]; 10 g/a) | Herbicidal effects, barnyard grass ([5]; 20 g/a) | Herbicidal effects, barnyard grass ([5]; 40 g/a) | Herbicidal effect, common purslane ([6]; 10 g./a.) | Herbicidal effect, common purslane ([6]; 20 g./a.) | other results |
| --- | --- | --- | --- | --- | --- | --- | --- | --- | --- | --- | --- | --- | --- | --- | --- | --- | --- | --- | --- | --- | --- |
| CCOP(=O)(SCC(=O)N1CCCCC1CC)SCc1ccc(Br)cc1 (stereo not shown) [Compound 57] | – | – | – | – | – | – | – | – | – | – | – | – | – | – | – | – | – | – | – | – | Mortality (nematode): 91.0% |
| C#CCSP(=O)(OCC)SCC(=O)N1CCCCC1C (stereo not shown) [Compound 33] | – | – | – | – | – | – | – | – | – | – | – | – | – | – | – | – | – | – | – | – | Mortality (nematode): 100% |
| ClC=CCCl [Dichloropropene, reference compound] | – | – | – | – | – | – | – | – | – | – | – | – | – | – | – | – | – | – | – | – | Mortality (nematode): 79.3% |
| CCOP(=O)(SCC(=O)N1CCCCC1CC)SCC(C)C (stereo not shown) [Compound 77] | 0 | 0 | 0 | 5 | 5 | 5 | 5 | 5 | 5 | 5 | 5 | 5 | 5 | 5 | 5 | 5 | 5 | 5 | 5 | 5 | Herbicidal effect, common purslane ([6]; 40 g./a.): 5; Phytotoxicity on rice (rice; 10 g/a): 0; Phytotoxicity on rice (rice; 20 g/a): 0; Phytotoxicity on rice (rice; 40 g/a): 1; Herbicidal effect, common lambsquarter ([7]; 10 g./a.): 5; Herbicidal effect, common lambsquarter ([7]; 20 g./a.): 5; Herbicidal effect, common lambsquarter ([7]; 40 g./a.): 5 |
| CCCCSP(=O)(OCCC)SCC(=O)N1CCCCC1CC (stereo not shown) [Compound 86] | 0 | 0 | 0 | 5 | 5 | 5 | 5 | 5 | 5 | 5 | 5 | 5 | 4 | 5 | 5 | 5 | 5 | 5 | 5 | 5 | Herbicidal effect, common purslane ([6]; 40 g./a.): 5; Phytotoxicity on rice (rice; 10 g/a): 0; Phytotoxicity on rice (rice; 20 g/a): 0; Phytotoxicity on rice (rice; 40 g/a): 0; Herbicidal effect, common lambsquarter ([7]; 10 g./a.): 5; Herbicidal effect, common lambsquarter ([7]; 20 g./a.): 5; Herbicidal effect, common lambsquarter ([7]; 40 g./a.): 5 |
| CCCCOP(=O)(SCC(=O)N1CCCCC1C)SCc1ccc(C)cc1 (stereo not shown) [Compound 56] | 0 | 0 | 0 | 5 | 5 | 5 | 5 | 5 | 5 | 4 | 5 | 5 | 3 | 3 | 5 | 5 | 5 | 5 | 3 | 3 | Herbicidal effect, common purslane ([6]; 40 g./a.): 4; Phytotoxicity on rice (rice; 10 g/a): 0; Phytotoxicity on rice (rice; 20 g/a): 0; Phytotoxicity on rice (rice; 40 g/a): 0; Herbicidal effect, common lambsquarter ([7]; 10 g./a.): 3; Herbicidal effect, common lambsquarter ([7]; 20 g./a.): 4; Herbicidal effect, common lambsquarter ([7]; 40 g./a.): 5 |
| CCOP(=O)(SCC(=O)N1CCCC(C)C1)SCC(C)C (stereo not shown) [Compound 28] | – | – | – | – | – | – | – | – | – | – | – | – | – | – | – | – | – | – | – | – | Mortality (nematode): 100% |
| CCCOP(=O)(SCC(=O)N1CCCCC1C)SCC(C)C (stereo not shown) [Compound 67] | 0 | 0 | 0 | 5 | 5 | 5 | 4 | 5 | 5 | 4 | 5 | 5 | 4 | 4 | 5 | 5 | 5 | 5 | 4 | 4 | Herbicidal effect, common purslane ([6]; 40 g./a.): 5; Phytotoxicity on rice (rice; 10 g/a): 0; Phytotoxicity on rice (rice; 20 g/a): 0; Phytotoxicity on rice (rice; 40 g/a): 0; Herbicidal effect, common lambsquarter ([7]; 10 g./a.): 3; Herbicidal effect, common lambsquarter ([7]; 20 g./a.): 4; Herbicidal effect, common lambsquarter ([7]; 40 g./a.): 5 |
| CCCCCSP(=O)(OCCC)SCC(=O)N1CCCCC1C (stereo not shown) [Compound 68] | 0 | 0 | 0 | 5 | 5 | 5 | 4 | 4 | 5 | 4 | 4 | 5 | 4 | 4 | 5 | 5 | 5 | 5 | 3 | 4 | Herbicidal effect, common purslane ([6]; 40 g./a.): 5; Phytotoxicity on rice (rice; 10 g/a): 0; Phytotoxicity on rice (rice; 20 g/a): 0; Phytotoxicity on rice (rice; 40 g/a): 0; Herbicidal effect, common lambsquarter ([7]; 10 g./a.): 4; Herbicidal effect, common lambsquarter ([7]; 20 g./a.): 4; Herbicidal effect, common lambsquarter ([7]; 40 g./a.): 5 |
| CCCCOP(=O)(SCC(=O)N1CCCCC1CC)SCC(C)C (stereo not shown) [Compound 97] | 0 | 0 | 0 | 5 | 5 | 5 | 4 | 5 | 5 | 4 | 5 | 5 | 3 | 4 | 5 | 5 | 5 | 5 | 4 | 4 | Herbicidal effect, common purslane ([6]; 40 g./a.): 5; Phytotoxicity on rice (rice; 10 g/a): 0; Phytotoxicity on rice (rice; 20 g/a): 0; Phytotoxicity on rice (rice; 40 g/a): 0; Herbicidal effect, common lambsquarter ([7]; 10 g./a.): 3; Herbicidal effect, common lambsquarter ([7]; 20 g./a.): 4; Herbicidal effect, common lambsquarter ([7]; 40 g./a.): 5 |
